From PubChem BioAssay (NCI)
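48-hour exposure; five concentrations; linearly interpolated endpoints. Definition used: TGI = concentration required for complete inhibition of growth.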

What was measured:
Assay in all cases: growth of human tumour cells (NCI), 48 h
DLD-1 colon = test system: DLD-1 colon
UACC-257 melanoma = test system: UACC-257 melanoma
RPMI-8226 leukemia = test system: RPMI-8226 leukemia
SF-268 CNS = test system: SF-268 CNS
DMS 273 small cell lung = test system: DMS 273 small cell lung
NCI-H460 lung = test system: NCI-H460 lung
SF-295 CNS = test system: SF-295 CNS
MALME-3M melanoma = test system: MALME-3M melanoma
NCI-H23 lung = test system: NCI-H23 lung
HCC-2998 colon = test system: HCC-2998 colon
HOP-62 NSCLC = test system: HOP-62 NSCLC
SNB-78 CNS = test system: SNB-78 CNS
SW-620 colon = test system: SW-620 colon
786-0 renal = test system: 786-0 renal
NCI-H522 lung = test system: NCI-H522 lung
M14 melanoma = test system: M14 melanoma
LXFL 529 NSCLC = test system: LXFL 529 NSCLC
OVCAR-3 ovarian = test system: OVCAR-3 ovarian
CAKI-1 renal = test system: CAKI-1 renal
XF 498 CNS = test system: XF 498 CNS
SF-539 CNS = test system: SF-539 CNS
CCRF-CEM leukemia = test system: CCRF-CEM leukemia
SR leukemia = test system: SR leukemia
SNB-75 CNS = test system: SNB-75 CNS
K-562 leukemia = test system: K-562 leukemia
SN12C renal = test system: SN12C renal
SNB-19 CNS = test system: SNB-19 CNS
M19-MEL melanoma = test system: M19-MEL melanoma
KM12 colon = test system: KM12 colon
SK-OV-3 ovarian = test system: SK-OV-3 ovarian
SK-MEL-2 melanoma = test system: SK-MEL-2 melanoma
UACC-62 melanoma = test system: UACC-62 melanoma
RXF 393 renal = test system: RXF 393 renal
COLO 205 colon = test system: COLO 205 colon
U251 CNS = test system: U251 CNS
OVCAR-5 ovarian = test system: OVCAR-5 ovarian
IGROV1 ovarian = test system: IGROV1 ovarian
EKVX NSCLC = test system: EKVX NSCLC
TK-10 renal = test system: TK-10 renal
A498 renal = test system: A498 renal
MOLT-4 leukemia = test system: MOLT-4 leukemia
HL-60(TB) leukemia = test system: HL-60(TB) leukemia
NCI-H226 lung = test system: NCI-H226 lung
HT29 colon = test system: HT29 colon
KM20L2 colon = test system: KM20L2 colon
HOP-92 NSCLC = test system: HOP-92 NSCLC
SK-MEL-5 melanoma = test system: SK-MEL-5 melanoma
UO-31 renal = test system: UO-31 renal
HOP-18 NSCLC = test system: HOP-18 NSCLC
ACHN renal = test system: ACHN renal
OVCAR-4 ovarian = test system: OVCAR-4 ovarian
A549 NSCLC = test system: A549 NSCLC
HCT-116 colon = test system: HCT-116 colon
HCT-15 colon = test system: HCT-15 colon

**Q.** For CCC/C=C\C=C\C1(NS(=O)(=O)c2ccc(C)cc2)CCC(C(C)(C)C)CC1 (centres undefined), which TGI (DLD-1 colon) is on record?
**A.** The TGI was 45.3 µM.

**Q.** What about the TGI (UACC-257 melanoma) of the same molecule?
**A.** The TGI was 39 µM.

**Q.** And the TGI (RPMI-8226 leukemia)?
**A.** The TGI was 27.2 µM.

**Q.** And the TGI (SF-268 CNS)?
**A.** Its TGI is 40 µM.

**Q.** What about the TGI (DMS 273 small cell lung) of the same molecule?
**A.** Its TGI is 27.9 µM.

**Q.** And the TGI (NCI-H460 lung)?
**A.** Its TGI is 36.2 µM.

**Q.** What about the TGI (SF-295 CNS) of the same molecule?
**A.** Its TGI is 51.2 µM.

**Q.** What about the TGI (MALME-3M melanoma) of the same molecule?
**A.** The TGI was 47.9 µM.

**Q.** And the TGI (NCI-H23 lung)?
**A.** Its TGI is 55 µM.

**Q.** What about the TGI (HCC-2998 colon) of the same molecule?
**A.** Its TGI is 34.3 µM.

**Q.** And the TGI (HOP-62 NSCLC)?
**A.** The TGI was 56.7 µM.

**Q.** What about the TGI (SNB-78 CNS) of the same molecule?
**A.** Its TGI is 72.3 µM.

**Q.** What about the TGI (SW-620 colon) of the same molecule?
**A.** The TGI was 35.7 µM.

**Q.** What about the TGI (786-0 renal) of the same molecule?
**A.** Its TGI is 29.9 µM.

**Q.** And the TGI (NCI-H522 lung)?
**A.** The TGI was 12.1 µM.

**Q.** What about the TGI (M14 melanoma) of the same molecule?
**A.** Its TGI is 37.1 µM.

**Q.** What about the TGI (LXFL 529 NSCLC) of the same molecule?
**A.** The TGI was > 100 µM.

**Q.** What about the TGI (OVCAR-3 ovarian) of the same molecule?
**A.** The TGI was 21.9 µM.

**Q.** And the TGI (CAKI-1 renal)?
**A.** Its TGI is 61.9 µM.

**Q.** What about the TGI (XF 498 CNS) of the same molecule?
**A.** The TGI was 35.7 µM.

**Q.** And the TGI (SF-539 CNS)?
**A.** The TGI was > 100 µM.

**Q.** And the TGI (CCRF-CEM leukemia)?
**A.** Its TGI is 24.2 µM.

**Q.** What about the TGI (SR leukemia) of the same molecule?
**A.** Its TGI is 14.8 µM.

**Q.** What about the TGI (SNB-75 CNS) of the same molecule?
**A.** Its TGI is 72.1 µM.

**Q.** And the TGI (K-562 leukemia)?
**A.** The TGI was 34.2 µM.

**Q.** What about the TGI (SN12C renal) of the same molecule?
**A.** The TGI was 23.5 µM.

**Q.** And the TGI (SNB-19 CNS)?
**A.** Its TGI is > 100 µM.

**Q.** And the TGI (M19-MEL melanoma)?
**A.** Its TGI is 44.9 µM.

**Q.** What about the TGI (KM12 colon) of the same molecule?
**A.** The TGI was 31.9 µM.

**Q.** What about the TGI (SK-OV-3 ovarian) of the same molecule?
**A.** Its TGI is 65.2 µM.

**Q.** And the TGI (SK-MEL-2 melanoma)?
**A.** The TGI was 29 µM.

**Q.** And the TGI (UACC-62 melanoma)?
**A.** Its TGI is 88.7 µM.

**Q.** What about the TGI (RXF 393 renal) of the same molecule?
**A.** The TGI was 32.3 µM.

**Q.** And the TGI (COLO 205 colon)?
**A.** The TGI was 28.1 µM.

**Q.** What about the TGI (U251 CNS) of the same molecule?
**A.** Its TGI is 25.9 µM.

**Q.** What about the TGI (OVCAR-5 ovarian) of the same molecule?
**A.** The TGI was 43.8 µM.

**Q.** And the TGI (IGROV1 ovarian)?
**A.** Its TGI is 87.3 µM.

**Q.** And the TGI (EKVX NSCLC)?
**A.** Its TGI is 62.6 µM.

**Q.** And the TGI (TK-10 renal)?
**A.** Its TGI is 69.9 µM.

**Q.** And the TGI (A498 renal)?
**A.** Its TGI is 46.4 µM.

**Q.** What about the TGI (MOLT-4 leukemia) of the same molecule?
**A.** The TGI was 24 µM.

**Q.** What about the TGI (HL-60(TB) leukemia) of the same molecule?
**A.** Its TGI is 23.2 µM.

**Q.** What about the TGI (NCI-H226 lung) of the same molecule?
**A.** Its TGI is 38 µM.

**Q.** And the TGI (HT29 colon)?
**A.** The TGI was 30.2 µM.

**Q.** And the TGI (KM20L2 colon)?
**A.** The TGI was 35.6 µM.

**Q.** What about the TGI (HOP-92 NSCLC) of the same molecule?
**A.** The TGI was 50.9 µM.

**Q.** And the TGI (SK-MEL-5 melanoma)?
**A.** Its TGI is 33.3 µM.

**Q.** And the TGI (UO-31 renal)?
**A.** Its TGI is 59 µM.

**Q.** And the TGI (HOP-18 NSCLC)?
**A.** Its TGI is > 100 µM.

**Q.** What about the TGI (ACHN renal) of the same molecule?
**A.** The TGI was 53.7 µM.

**Q.** And the TGI (OVCAR-4 ovarian)?
**A.** Its TGI is 49.4 µM.

**Q.** And the TGI (A549 NSCLC)?
**A.** The TGI was 38.6 µM.

**Q.** And the TGI (HCT-116 colon)?
**A.** Its TGI is 38.3 µM.

**Q.** What about the TGI (HCT-15 colon) of the same molecule?
**A.** Its TGI is 43.8 µM.
